Read-outs that look alike come from different tables or passages of the source.
Columns and labels:
OachGOBP2 [1] = biological target: T1, OachGOBP2 (Orthaga achatina, UniProt H6UEU3); assay: Fluorescence competitive binding assay (1-NPN displacement), OachGOBP2; conditions: for Ki: Ki = [IC50]/(1 + [1-NPN]/K1-NPN), read-out: GOBP2 Ki; for binding to GOBP2 (in words): fluorescence competitive binding
Description: (§1) A fluorescence competition binding assay was used to test the binding properties of GOBPs to 22 plant volatiles of camphor [22, 23] and 4 sex pheromones of O. achatina. The fluorescence competitive binding assay was conducted on an F-7000 fluorescence spectrophotometer with a 1 cm light path quartz cuvette and 10 nm slits for excitation and emission. The excitation wavelength was 337 nm, and the emission spectrum was recorded between 380 and 460 nm. Firstly, the binding characteristics of 1-NPN to protein were detected. We dissolved 2 µM protein in 50 mM Tris HCl (pH = 7.4), then gradually added 1 mM 1-NPN to make its concentration reach 2, 4, 6, 8, 10, 12, 14, 16 and 20 µM, recorded the fluorescence value, and then calculated the binding constant between 1-NPN and the recombinant protein using the Scatchard equation.
(§2) When studying the binding constant between odorant and recombinant protein, 1-NPN was used as a fluorescence reporter. We dissolved 2 µM protein and 2 µM 1-NPN in 50 mM Tris HCl, and then gradually added the ligand. All the ligands were diluted in methanol (AR, content greater than 99.5%). The concentration of pheromone component was 0.5–10 µM and the concentration of plant volatile was 1–32 µM. In order to determine the binding concentration of protein, the free radical concentration was plotted with the fluorescence intensity of the maximum emission spectrum. It was assumed that the protein activity was 100% and the binding ratio of protein to ligand was 1:1 in the saturated state. The curve was linearized by the Scatchard method. Then, the concentration of competitive binding ligand was calculated according to the IC50 value (the concentration when competitive ligand can replace 50% 1-NPN). The calculation formula was: Ki = [IC50]/(1 + [1-NPN]/K1-NPN), where [1-NPN] is the concentration of unbound 1-NPN and K1-NPN is the dissociation concentration of protein/1-NPN complex.

OachGOBP1 [2] = assay: Fluorescence competitive binding assay (1-NPN displacement), OachGOBP1; parameters: species or system Orthaga achatina; conditions: 2 µM protein and 2 µM 1-NPN in 50 mM Tris HCl; for Ki: Ki = [IC50]/(1 + [1-NPN]/K1-NPN), read-out: GOBP1 Ki; for IC50: competitive ligand replacing 50% 1-NPN, read-out: GOBP1 IC50
Description: as §1
as §2, with “All the ligands were diluted in methanol (AR, content greater than 99.5%). The concentration of pheromone component was 0.5–10 µM and the concentration of plant volatile was 1–32 µM.” left out, “Then, the concentration of competitive binding ligand was calculated according to the IC50 value (the concentration when competitive ligand can replace 50% 1-NPN).” left out

OachGOBP2 [3] = biological target: T1, OachGOBP2; assay: Binding of fluorescent probe 1-NPN to OachGOBP2 (Scatchard); conditions: 2 µM protein in 50 mM Tris HCl pH 7.4, Scatchard; read-out: dissociation constant (K1-NPN) to OachGOBP2
Description: as §1

OachGOBP1 [4] = assay: Binding of fluorescent probe 1-NPN to OachGOBP1 (Scatchard); parameters: species or system Orthaga achatina; conditions: 2 µM protein in 50 mM Tris HCl pH 7.4, Scatchard; read-out: dissociation constant (K1-NPN) to OachGOBP1
Description: as §1

[5] = 2 µM protein and 2 µM 1-NPN in 50 mM Tris HCl
[6] = competitive ligand replacing 50% 1-NPN, 2 µM protein and 2 µM 1-NPN in 50 mM Tris HCl, read-out: GOBP2 IC50

T1 sequence (H6UEU3 entry or part of it): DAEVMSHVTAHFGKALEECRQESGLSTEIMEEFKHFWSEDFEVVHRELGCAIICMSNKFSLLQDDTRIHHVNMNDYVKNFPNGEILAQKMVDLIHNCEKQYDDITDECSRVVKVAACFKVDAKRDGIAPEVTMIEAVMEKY

Row | SMILES | Ki (OachGOBP2 [1]; [5]) | IC50 (OachGOBP2 [1]; [6]) | Ki (OachGOBP1 [2]) | IC50 (OachGOBP1 [2]) | Kd (OachGOBP2 [3]) | Kd (OachGOBP1 [4]) | binding to GOBP2 (in words) (OachGOBP2 [1]) | IC50 (OachGOBP2 [1]) | binding capacity class to OachGOBP2 (sex pheromones) (OachGOBP2 [1]; class by Ki, sex pheromones)
1 | CCCCCCO [1-Hexanol] | > 30 µM | > 32 µM | > 30 µM | > 32 µM |  |  |  |  | 
2 | c1ccc(Nc2cccc3ccccc23)cc1 [1-NPN] |  |  |  |  | 4.91 µM | 9.95 µM |  |  | 
3 | C=C1C2CCC(C2)C1(C)C (stereo not shown) [Camphene] | > 30 µM | > 32 µM | > 30 µM | > 32 µM |  |  | did not bind |  | 
4 | CC12CCC(CC1=O)C2(C)C (stereo not shown) [Camphor] | 17.5 µM | 20.7 µM | > 30 µM | > 32 µM |  |  |  |  | 
5 | O=C/C=C/c1ccccc1 [Cinnamaldehyde] |  |  | > 30 µM | > 32 µM |  |  |  | > 32 µM | 
6 | CCC/C=C/C=O [E2-Hexenal] | > 30 µM | > 32 µM | > 30 µM | > 32 µM |  |  |  |  | 
7 | CC12CCC(CC1)C(C)(C)O2 [Eucalyptol] | > 30 µM | > 32 µM | > 30 µM | > 32 µM |  |  |  |  | 
8 | CC(C)=CCC/C(C)=C/CC/C(C)=C/CO [Farnesol] | 7.33 µM | 8.68 µM | 9.49 µM | 10.9 µM |  |  |  |  | 
9 | CC(C)=CCC/C(C)=C/CO [Geraniol] |  |  | > 30 µM | > 32 µM |  |  |  | > 32 µM | 
10 | O=CCCCC=O [Glutaraldehyde] |  |  | > 30 µM | > 32 µM |  |  |  | > 32 µM | 
11 | CCCCCCOC(C)=O [Hexyl acetate] | > 30 µM | > 32 µM | > 30 µM | > 32 µM |  |  |  |  | 
12 | C=C(C)[C@H]1CC=C(C)CC1 [Limonene] | > 30 µM | > 32 µM | > 30 µM | > 32 µM |  |  |  |  | 
13 | C=CC(C)(O)CCC=C(C)C (stereo not shown) [Linalool] |  |  | > 30 µM | > 32 µM |  |  |  | 13.9 µM | 
14 | C=CC(C)=CCC=C(C)C [Ocimene] | > 30 µM | > 32 µM | > 30 µM | > 32 µM |  |  |  |  | 
15 | CC/C=C\C/C=C\C/C=C\C/C=C\C/C=C\CCCCCCC [Z3, Z6, Z9,Z12,Z15–23: H] | > 30 µM | > 32 µM | > 30 µM | > 32 µM |  |  |  |  | 
16 | CC/C=C\CCO [Z3-Hexen-1-ol] | 18.2 µM | 21.4 µM | > 30 µM | > 32 µM |  |  |  |  | 
17 | CC/C=C\CC=O [Z3-Hexenal] | > 30 µM | > 32 µM | > 30 µM | > 32 µM |  |  | did not bind |  | 
18 | CC/C=C\CCOC(C)=O [Z3-Hexenyl acetate] | 14.3 µM | 16.8 µM | > 30 µM | > 32 µM |  |  |  |  | 
19 | CCCC/C=C\CCCCCCCCCC=O [Z11-16: Ald] |  | > 32 µM | > 30 µM | > 32 µM |  |  |  |  | 
20 | CCCC/C=C\CCCCCCCCCCOC(C)=O [Z11-16: OAc] | 2.84 µM | 3.3 µM | > 30 µM | > 32 µM |  |  |  |  | moderate (2 μM < Ki < 5 μM indicates moderate binding affinity)
21 | CCCC/C=C\CCCCCCCCCCO [Z11-16: OH] | 3.3 µM | 3.86 µM | 1.57 µM | 1.79 µM |  |  |  |  | 
22 | C=C/C(C)=C/C/C=C(\C)CCC=C(C)C [α-Farnesene] | 13.4 µM | 15.9 µM | > 30 µM | > 32 µM |  |  |  |  | 
23 | CC(=O)/C=C/C1C(C)=CCCC1(C)C (stereo not drawn) [α-Ionone] |  |  | > 30 µM | > 32 µM |  |  |  | > 32 µM | 
24 | CC1=CC[C@H](C(C)C)C=C1 [α-Phellandrene] |  |  | > 30 µM | > 32 µM |  |  |  | 10.2 µM | 
25 | C=CC(=C)CC/C=C(\C)CCC=C(C)C [β-Farnesene] | > 30 µM | > 32 µM | > 30 µM | > 32 µM |  |  |  |  | 
26 | CC(=O)/C=C/C1=C(C)CCCC1(C)C [β-Ionone] |  |  | > 30 µM | > 32 µM |  |  |  | 17.8 µM | 
27 | C=C1CCC2CC1C2(C)C (stereo not drawn) [β-Pinene] |  |  | > 30 µM | > 32 µM |  |  |  | > 32 µM | 

— article PMC10051560, “Identification and Functional Characterization of General Odorant Binding Proteins in Orthaga achatina” (Insects, 2023)
